# Assay results taken from patent US6608032B1, “Medicinal compositions” (Takara Shuzo Co., Ltd., priority 1999, dated 2003).
# What was measured:
# cyclooxygenase 2 protein = experiment: LPS-induced cyclooxygenase 2 protein expression in RAW264.7 cells (Western blot); format: cell-based; conditions: 50 μl of 10 mM solution per 5 ml, added 0 or 6 hours before LPS
# Procedure: (1) RAW264.7 cells (ATCC TIB 71) were suspended in Dulbecco's modified Eagle's medium (Bio Whittaker, 12-604F) containing 10% fetal calf serum (Gibco) at a concentration of 3×10^5 cells/ml. 5 ml of the suspension was added to each well of a 6-well microtiter plate and the plate was incubated at 37° C. overnight in the presence of 5% CO2. 50 μl of a solution containing agarobiose or agarohexaose at a concentration of 10 mM in water was added to the well. The plate was incubated for 0 or 6 hours. 50 μl of a solution containing lipopolysaccharide (LPS, Sigma, L-2012) at a concentration of 100 μg/ml in water was added to the well. The plate was incubated for additional 12 hours. The cells were recovered by detaching the cells from the plate using a scraper and suspended in phosphate buffered saline containing 1 μg/ml pepstatin A (Sigma, P5318), 1 μg/ml leupeptin (Sigma, L2884), 1 mM phenylmethylsulfonyl fluoride (Nacalai Tesque, 273-27), 10 mM ethylenediaminetetraacetic acid disodium salt and 0.1% Triton X-100. A supernatant obtained by centrifuging the suspension after freezing and thawing was used as a protein fraction. The content of protein in the protein fraction was determined using Micro BCA Protein Assay Reagent (a product of Pierce sold by Takara Shuzo, P7411). […]
# cyclooxygenase 2 mRNA = experiment: LPS-induced cyclooxygenase 2 mRNA synthesis in RAW264.7 cells (RT-PCR); format: cell-based; conditions: 50 μl of 10 mM solution per 5 ml, added 0 or 6 hours before LPS
# Procedure: (2) RAW264.7 cells (ATCC TIB 71) were suspended in Dulbecco's modified Eagle's medium (Bio Whittaker, 12-604F) containing 10% fetal calf serum (Gibco) at a concentration of 3×10^5 cells/ml. 5 ml of the suspension was added to each well of a 6-well microtiter plate and the plate was incubated at 37° C. overnight in the presence of 5% CO2. 50 μl of a solution containing agarobiose or agarohexaose at a concentration of 10 mM in water was added to the well. The plate was incubated for 0 or 6 hours. 50 μl of a solution containing lipopolysaccharide (LPS, Sigma, L-2012) at a concentration of 100 μg/ml in water was added to the well. The plate was incubated for additional 5 hours. The culture supernatant was removed, and 1 ml of a solution of Catrimox-14 (a product of Iowa Biotechnology sold by Takara Shuzo, WA002) was added to the well. After pipetting, the solution was collected. An RNA was prepared according to the attached protocol. The RNA prepared as described above was subjected to RT-PCR using RNA-PCR Kit (AMV) Ver. 2.1 (Takara Shuzo, R019A). A reverse transcription reaction was conducted using a random primer (N6) (Takara Shuzo, 3801) at 30° C. for 10 minutes, at 42° C. for 30 minutes and 99° C. for 5 minutes. […]
# α-glucosidase = α-glucosidase (Rattus norvegicus, UniProt P23739); experiment: α-glucosidase inhibition, crude enzyme preparation from rat small intestine mucous membrane; format: biochemical
# Procedure: (2) A crude enzyme preparation obtained from rat small intestine mucous membrane prepared according to the method as described in Arne Dahlqvist, Anal. Biochem., 7:18-25 (1964) was used to measure the activity of inhibiting α-glucosidase of agarotetraose or agarohexaose prepared in Referential Example 1 in vitro as follows.
# For the enzymatic reaction, 80 μl of a solution of sucrose, maltose, treharose or soluble starch as a substrate in 10 mM phosphate buffer (pH 7.0) at a final concentration of 100 mM (0.5% in case of soluble starch) was added to 10 μl of a test sample solution appropriately diluted with the same buffer. 10 μl of the crude enzyme solution prepared from rat small intestine was added thereto. The mixture was reacted at 37° C. for 20 minutes. The enzymatic activity was determined as follows as the amount of glucose generated in the reaction mixture: 3 ml of a reagent for glucose measurement (Wako Pure Chemical Industries) was added to the reaction mixture, reaction was carried out at 37° C. for 5 minutes, and then the absorbance at 505 nm was measured. The inhibitory activity on the digestion of each substrate was expressed as a remaining activity (%) against the control, which was calculated based on the activity measured as described above for each of four different concentrations. The remaining activities (%) on the respective substrates in the presence of agarotetraose are shown in Table 2, whereas the remaining activities (%) on the respective substrates in the presence of agarohexaose are shown in Table 3.
# Sequence of α-glucosidase (P23739 whole entry): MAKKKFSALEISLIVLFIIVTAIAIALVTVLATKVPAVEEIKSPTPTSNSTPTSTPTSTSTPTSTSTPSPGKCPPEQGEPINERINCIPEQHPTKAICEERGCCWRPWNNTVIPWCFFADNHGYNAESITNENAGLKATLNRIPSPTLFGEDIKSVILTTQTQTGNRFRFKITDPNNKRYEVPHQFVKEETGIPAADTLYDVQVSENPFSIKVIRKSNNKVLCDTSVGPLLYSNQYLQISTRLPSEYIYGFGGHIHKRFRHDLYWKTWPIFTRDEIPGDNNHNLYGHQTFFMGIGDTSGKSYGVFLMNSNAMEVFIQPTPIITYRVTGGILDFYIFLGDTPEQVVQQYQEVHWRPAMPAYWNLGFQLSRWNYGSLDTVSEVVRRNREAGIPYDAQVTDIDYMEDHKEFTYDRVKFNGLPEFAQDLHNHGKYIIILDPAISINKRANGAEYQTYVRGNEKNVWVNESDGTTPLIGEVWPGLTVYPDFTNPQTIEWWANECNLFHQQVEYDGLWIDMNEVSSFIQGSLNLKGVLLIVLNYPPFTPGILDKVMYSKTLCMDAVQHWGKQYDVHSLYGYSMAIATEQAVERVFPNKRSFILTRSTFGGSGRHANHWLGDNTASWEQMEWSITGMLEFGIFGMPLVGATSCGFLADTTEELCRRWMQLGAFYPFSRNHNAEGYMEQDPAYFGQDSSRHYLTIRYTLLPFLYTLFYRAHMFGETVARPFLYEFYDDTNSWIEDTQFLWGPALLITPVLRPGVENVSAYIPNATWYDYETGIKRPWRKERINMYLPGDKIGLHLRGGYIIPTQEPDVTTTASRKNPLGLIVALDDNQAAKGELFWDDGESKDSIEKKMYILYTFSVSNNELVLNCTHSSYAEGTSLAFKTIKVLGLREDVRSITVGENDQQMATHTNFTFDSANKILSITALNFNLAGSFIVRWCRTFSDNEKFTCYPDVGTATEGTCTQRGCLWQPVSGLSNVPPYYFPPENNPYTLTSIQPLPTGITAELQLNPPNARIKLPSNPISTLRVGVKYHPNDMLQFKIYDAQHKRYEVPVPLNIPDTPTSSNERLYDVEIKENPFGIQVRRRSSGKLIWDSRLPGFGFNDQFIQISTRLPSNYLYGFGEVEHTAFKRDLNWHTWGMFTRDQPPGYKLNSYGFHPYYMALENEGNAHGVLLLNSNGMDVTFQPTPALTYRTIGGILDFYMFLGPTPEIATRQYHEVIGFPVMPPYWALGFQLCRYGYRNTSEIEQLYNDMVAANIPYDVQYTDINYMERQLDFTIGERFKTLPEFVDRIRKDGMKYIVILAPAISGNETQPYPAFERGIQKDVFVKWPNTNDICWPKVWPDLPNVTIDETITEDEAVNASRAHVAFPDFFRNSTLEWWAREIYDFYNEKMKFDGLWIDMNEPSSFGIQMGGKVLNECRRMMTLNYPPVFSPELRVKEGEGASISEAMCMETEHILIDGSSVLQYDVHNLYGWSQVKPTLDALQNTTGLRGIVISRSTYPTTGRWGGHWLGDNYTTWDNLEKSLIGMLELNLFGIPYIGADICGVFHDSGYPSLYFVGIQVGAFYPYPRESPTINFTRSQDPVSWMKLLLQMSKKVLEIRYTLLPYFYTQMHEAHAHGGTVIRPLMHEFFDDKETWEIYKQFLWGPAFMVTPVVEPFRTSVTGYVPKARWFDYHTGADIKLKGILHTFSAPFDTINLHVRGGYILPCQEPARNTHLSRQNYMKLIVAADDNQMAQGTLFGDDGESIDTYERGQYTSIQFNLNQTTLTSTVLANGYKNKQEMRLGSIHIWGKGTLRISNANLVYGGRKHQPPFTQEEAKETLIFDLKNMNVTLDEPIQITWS
SMILES,increase in cyclooxygenase 2 protein expression induced by LPS (cyclooxygenase 2 protein),increase in the cyclooxygenase 2 mRNA synthesis induced by LPS (cyclooxygenase 2 mRNA),remaining activity at 200 µM (α-glucosidase),remaining activity at 500 µM (α-glucosidase),remaining activity at 1000 µM (α-glucosidase),remaining activity at 2000 µM (α-glucosidase)
"OC[C@H]1O[C@@H](O[C@H]2[C@H]3OC[C@@H]2OC(O)[C@H]3O)[C@H](O)[C@@H](O)[C@H]1O (mixture of isomers) [Agarobiose, agarobiose]",not suppressed,not suppressed,,,,
"OCC1OC(OC2C3COC2C(O)C(OC2C(O)C(CO)OC(OC4C5COC4C(O)C(OC4C(O)C(CO)OC(OC6C7COC6C(O)C(O)O7)C4O)O5)C2O)O3)C(O)C(O)C1O (stereo not drawn) [Agarohexaose, agarohexaose]",not suppressed,not suppressed,92%,85%,81%,70%
"OCC1OC(OC2C3COC2C(O)C(OC2C(O)C(CO)OC(OC4C5COC4C(O)C(O)O5)C2O)O3)C(O)C(O)C1O (stereo not drawn) [Agarotetraose, agarotetraose]",,,92%,85%,83%,72%
